Values after ≈ are worked out from the molar mass of the structure shown. Values joined by “and” are separate entries in the source; they are usually repeats but may differ in a detail not shown here. Equal values may be shown once. Where a name gives a salt, the structure may show the parent alone.
How the values were obtained:
Staphylococcus aureus [1] = experiment: Antibacterial activity against methicillin-resistant Staphylococcus aureus ATCC 6548 incubated for 6 to 8 hrs by MABA; format: functional; conditions: time 6-8 hrs
Staphylococcus aureus [2] = experiment: Antibacterial activity against methicillin-sensitive Staphylococcus aureus incubated for 6 to 8 hrs by MABA; format: functional; conditions: time 6-8 hrs
Enterococcus faecium [3] = experiment: Antibacterial activity against vancomycin-resistant Enterococcus faecium incubated for 6 to 8 hrs by MABA; format: functional; conditions: time 6-8 hrs
Enterococcus faecium [4] = experiment: Antibacterial activity against vancomycin-sensitive Enterococcus faecium incubated for 6 to 8 hrs by MABA; format: functional; conditions: time 6-8 hrs
A549 = experiment: Cytotoxicity against human A549 cells assessed as reduction in cell viability after 72 hrs by MTT assay; format: functional, cell-based
HeLa = experiment: Cytotoxicity against human HeLa cells assessed as reduction in cell viability after 72 hrs by MTT assay; format: functional, cell-based
HepG2 = experiment: Cytotoxicity against human HepG2 cells assessed as reduction in cell viability after 72 hrs by MTT assay; format: functional, cell-based
MCF7 = experiment: Cytotoxicity against human MCF7 cells assessed as reduction in cell viability after 72 hrs by MTT assay; format: functional, cell-based
Vero = experiment: Cytotoxicity against African green monkey Vero cells assessed as reduction in cell viability after 72 hrs by MTT assay; format: cell-based, Chlorocebus sabaeus
[5] = Chlorocebus sabaeus, Vero, 72 h

Compound	MIC (Staphylococcus aureus [1])	MIC (Staphylococcus aureus [2])	MIC (Enterococcus faecium [3])	MIC (Enterococcus faecium [4])	IC50 (A549; Homo sapiens, A549, 72 h)	IC50 (HeLa; Homo sapiens, HeLa, 72 h)	IC50 (HepG2; Homo sapiens, HepG2, 72 h)	IC50 (MCF7; Homo sapiens, MCF7, 72 h)	IC50 (Vero; [5])	IC50 (A549; a549)	IC50 (HeLa; hela)	IC50 (HepG2; hepg2)	IC50 (MCF7; mcf7)	IC50 (Vero; vero)
COc1cc2c(c(O)c1Cl)C(=O)c1c(cc3c(Cl)c(OC)cc(-c4c(O)cc(O)c(Cl)c4C)c3c1O)C2(C)C	2.5 µg/mL (≈ 4.24 µM)	2.5 µg/mL (≈ 4.24 µM)	5 µg/mL (≈ 8.48 µM)	1.25 µg/mL (≈ 2.12 µM)	5.2 µM	6.3 µM	6.2 µM	10.1 µM	7.9 µM					
COc1cc(C)c(-c2cc(O)c(Cl)c3cc4c(c(O)c23)C(=O)c2c(cc(O)c(Cl)c2O)C4(C)C)c(O)c1	1.25 µg/mL (≈ 2.31 µM)	1.25 µg/mL (≈ 2.31 µM)	5 µg/mL (≈ 9.24 µM)	2.5 µg/mL (≈ 4.62 µM)	8.9 µM	11 µM	9.4 µM	21.7 µM	47 µM					
COc1cc2c(c(O)c1Cl)C(=O)c1c(cc3c(Cl)c(O)cc(-c4c(O)cc(O)c(Cl)c4C)c3c1O)C2(C)C					3.1 µM	4.7 µM	5.3 µM	4.7 µM	14.6 µM					
COc1c(Cl)c(C)c(-c2cc(O)cc3cc4c(c(O)c23)C(=O)c2c(cc(O)c(Cl)c2O)C4(C)C)c(O)c1Cl	1.25 µg/mL (≈ 2.17 µM)	1.25 µg/mL (≈ 2.17 µM)	1.25 µg/mL (≈ 2.17 µM)	1.25 µg/mL (≈ 2.17 µM)	5 µM	6 µM	7.7 µM	14.4 µM	12.4 µM					
COc1cc(C)c(-c2cc(OC)cc3cc4c(c(O)c23)C(=O)c2c(cc(OC)c(Cl)c2OC)C4(C)C)c(O)c1	> 10 µg/mL	> 10 µg/mL		> 10 µg/mL	6.4 µM	4.1 µM	3.2 µM	7.9 µM	5.8 µM					
COc1cc(C)c(C(=O)c2c(CC(C)=O)cc3c(c2O)C(=O)c2c(OC)cc(OC)cc2C3(C)C)c(OC)c1	> 10 µg/mL	> 10 µg/mL		> 10 µg/mL	13.1 µM	> 50 µM	> 50 µM	29.3 µM	> 50 µM					
COc1cc(C)c(-c2cc(OC)c(Cl)c3cc4c(c(O)c23)C(=O)c2c(cc(OC)c(Cl)c2OC)C4(C)C)c(O)c1	> 10 µg/mL	> 10 µg/mL		> 10 µg/mL	8.3 µM	15 µM	15 µM	13.1 µM	9 µM					
COc1cc(C)c(-c2cc(O)cc3cc4c(c(O)c23)C(=O)c2c(cc(OC)c(Cl)c2OC)C4(C)C)c(O)c1	2.5 µg/mL (≈ 4.67 µM)	2.5 µg/mL (≈ 4.67 µM)	2.5 µg/mL (≈ 4.67 µM)	2.5 µg/mL (≈ 4.67 µM)	3.3 µM	3.9 µM	5.7 µM	5 µM	3 µM					
COC1=CC(=O)C(c2cc(OC)cc3cc4c(c(O)c23)C(=O)c2c(cc(OC)c(Cl)c2O)C4(C)C)=C(C)C1=O	> 10 µg/mL	> 10 µg/mL		> 10 µg/mL	> 50 µM	> 50 µM	> 50 µM	> 50 µM	> 50 µM					
COc1cc2c(c(O)c1Cl)C(=O)c1c(cc3cc(O)cc(-c4c(C)c(OC)c(OC)c(Cl)c4O)c3c1O)C2(C)C	1.25 µg/mL (≈ 2.14 µM)	1.25 µg/mL (≈ 2.14 µM)	5 µg/mL (≈ 8.54 µM)	2.5 µg/mL (≈ 4.27 µM)	9.1 µM	7.2 µM	9.9 µM	17.8 µM	14.5 µM					
COc1cccc2c1C(=O)c1c(O)c3c(c(O)c1C2=O)C[C@@](O)(C(=O)CO)C[C@@H]3O[C@H]1C[C@H](N)[C@H](O)[C@H](C)O1 [DOXORUBICIN HYDROCHLORIDE]					0.69 µM	0.31 µM	0.8 µM	1.02 µM						
COc1cc(C)c(-c2nc(C)cc3cc4c(c(O)c23)C(=O)c2c(OC)cc(OC)cc2C4(C)C)c(OC)c1	> 10 µg/mL	> 10 µg/mL		> 10 µg/mL	5.1 µM	3.7 µM	3.4 µM	5.9 µM		6.6 µM	4.6 µM	3.8 µM	11.2 µM	2.7 µM and 7.5 µM
COc1cc(C)c(-c2cc(OC)cc3cc4c(c(O)c23)C(=O)c2c(cc(OC)c(Cl)c2O)C4(C)C)c(O)c1	> 10 µg/mL	> 10 µg/mL		> 10 µg/mL	7.6 µM	4.6 µM	8.3 µM	7.5 µM	8.2 µM					
COc1cc(C)c(-c2cc(O)c(Cl)c3cc4c(c(O)c23)C(=O)c2c(cc(OC)c(Cl)c2O)C4(C)C)c(O)c1					2.8 µM	3.3 µM	3.2 µM	3.6 µM	9 µM					
COc1cc2c(c(O)c1Cl)C(=O)c1c(cc3cc(O)cc(-c4c(C)c(Cl)c(O)c(Cl)c4O)c3c1O)C2(C)C					4.6 µM	6.1 µM	4.5 µM	9.2 µM	12.5 µM					
COc1cc(C)c(-c2cc(O)cc3cc4c(c(O)c23)C(=O)c2c(cc(OC)c(Cl)c2O)C4(C)C)c(O)c1					3.4 µM	2.9 µM	3.2 µM	3 µM	3.3 µM					
CN[C@H](CC(C)C)C(=O)N[C@H]1C(=O)N[C@@H](CC(N)=O)C(=O)N[C@H]2C(=O)N[C@H]3C(=O)N[C@H](C(=O)N[C@H](C(=O)O)c4cc(O)cc(O)c4-c4cc3ccc4O)[C@H](O)c3ccc(c(Cl)c3)Oc3cc2cc(c3O[C@@H]2O[C@H](CO)[C@@H](O)[C@H](O)[C@H]2O[C@H]2C[C@](C)(N)[C@H](O)[C@H](C)O2)Oc2ccc(cc2Cl)[C@H]1O [VANCOMYCIN]	0.63 µg/mL (≈ 0.435 µM)		> 40 µg/mL	1.25 µg/mL (≈ 0.863 µM)										
COc1cc(C)c(-c2nc(C)cc3cc4c(c(O)c23)C(=O)c2c(cc(OC)c(Cl)c2OC)C4(C)C)c(OC)c1	> 10 µg/mL	> 10 µg/mL		> 10 µg/mL	14.5 µM	3.4 µM	9.5 µM	4.4 µM	6.1 µM	12.6 µM	3.3 µM	8.7 µM	8.7 µM	10 µM
COc1cc2c(c(O)c1Cl)C(=O)c1c(cc3cc(O)cc(-c4c(C)c(Cl)c(O)c(Cl)c4OC)c3c1O)C2(C)C					5.4 µM	4.8 µM	4.7 µM	18.4 µM	11.1 µM					
COc1cc(-c2c(O)cc(OC)c(Cl)c2C)c2c(O)c3c(cc2c1)C(C)(C)c1cc(OC)c(Cl)c(O)c1C3=O	> 10 µg/mL	> 10 µg/mL		> 10 µg/mL	7.7 µM	22.4 µM	10.2 µM	18.3 µM	18 µM					
COc1cc(C)c(-c2cc(OC)c(Cl)c3cc4c(c(O)c23)C(=O)c2c(cc(OC)c(Cl)c2O)C4(C)C)c(O)c1	> 10 µg/mL	> 10 µg/mL		> 10 µg/mL	9 µM	11.5 µM	9.2 µM	3.8 µM	6.1 µM					
COc1cc(O)c(-c2cc(O)cc3cc4c(c(O)c23)C(=O)c2c(cc(OC)c(Cl)c2O)C4(C)C)c(C)c1Cl					2.6 µM	3.7 µM	3.7 µM	3.1 µM	3.5 µM					
COc1cc2c(c(O)c1Cl)C(=O)c1c(cc3c(Cl)c(O)cc(-c4c(C)c(Cl)c(O)c(Cl)c4O)c3c1O)C2(C)C					7 µM	14.3 µM	9.8 µM	18.1 µM	27.3 µM					
COc1cc2c(c(O)c1Cl)C(=O)c1c(cc3cc(O)cc(-c4c(O)cc(O)c(Cl)c4C)c3c1O)C2(C)C					13.1 µM	15 µM	11.7 µM	17.6 µM	14.6 µM					

— ChEMBL document CHEMBL4811289, “Antibacterial and Cytotoxic Phenyltetracenoid Polyketides from Streptomyces morookaense” (J Nat Prod, 2021)
